In patent US20130029991A1, “New Phenylsulfamoyl Benzamide Derivatives as Bradykinin Antagonists” (priority 2006, published 2013):
Structures can show the parent of a compound that is named as a salt.

Experiments:
[1] = target: T1, recombinant human B1 receptors (Homo sapiens, UniProt P46663); assay: Functional assay: antagonist potency by cytosolic calcium measurement (fluo-4, plate reader fluorimeter) in CHO-B1 cells; assay type: cell-based; conditions: CHO-B1 cells, inhibition of LysDABK (EC80)-evoked [Ca2+]i elevation; read-out: B1 func.
T1 construct: host or cells: CHO (CHO-B1)
T1 sequence (P46663 1-353): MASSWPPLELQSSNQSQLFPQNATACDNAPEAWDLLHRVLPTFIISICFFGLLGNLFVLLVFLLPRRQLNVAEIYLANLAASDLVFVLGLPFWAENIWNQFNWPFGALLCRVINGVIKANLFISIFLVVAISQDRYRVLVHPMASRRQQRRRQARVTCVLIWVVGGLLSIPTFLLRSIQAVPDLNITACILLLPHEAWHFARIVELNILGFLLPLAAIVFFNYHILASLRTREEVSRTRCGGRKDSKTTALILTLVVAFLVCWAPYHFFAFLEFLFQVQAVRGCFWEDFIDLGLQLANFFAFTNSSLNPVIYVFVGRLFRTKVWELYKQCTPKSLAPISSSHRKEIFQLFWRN
Experimental: Assessment of Antagonist Potency at B1 and B2 Receptors In Vitro by Measurement of Cytosolic Calcium Ion Concentration with a Plate Reader Fluorimeter in Cells Expressing Recombinant Human B1 or B2 Receptors
Chinese hamster ovary (CHO) cells stably expressing recombinant human B1 (CHO-B1, Euroscreen) or B2 (CHO-B2, Perkin-Elmer) receptors were cultured in Dulbecco's Modified Eagle's Medium (DMEM) containing 10% Fetal Calf Serum (FCS), 100 U/ml penicillin, 0.1 mg/ml streptomycin, 0.25 μg/ml amphotericin B, 1% Minimum Essential Medium Eagle (MEM), non essential amino acid solution, […], 1% pyruvate (for the B2 cell line). Cells were kept at 37° C. in a humidified incubator in an atmosphere of 5% CO2/95% air and were passaged 1:4 three times a week. Cells were plated at 1.5-2.5×10^4 cell/well on standard 96-well microplates, measurements of cytosolic calcium ion concentration ([Ca^2+]i) were carried out 1-2 days after cell plating.
Measurements of [Ca^2+]i were carried out on CHO-B1 and CHO-B2 cells stably expressing human B1 and B2 receptors, respectively. Cells were grown in standard 96-well microplates and before the measurement were loaded with a fluorescent Ca^2+-sensitive dye, fluo-4/AM (2 μM): after removing the culture medium the dye was added to the cells (dissolved in assay buffer: 145 mM NaCl, 5 mM KCl, 2 mM MgCl2, 2 mM CaCl2, 10 mM HEPES, 20 mM D-glucose, 2 mM probenecid, 100 μl/well) and cells were incubated at 37° C. in a humidified incubator in an atmosphere of 5% CO2/95% air for 40-120 min. To stop dye loading cells were washed twice with assay buffer. After washing, various concentrations of the test compounds (diluted in extracellular medium from a DMSO stock solution, final DMSO concentration was <0.1%) or buffer were added to each well depending on the experimental setup. After incubation at 37° C. for 20-25 min. baseline and agonist-evoked changes of [Ca^2+]i were measured column by column with a plate reader fluorimeter (Fluoroskan Ascent, Labsystems). Excitation and detection of emission was carried out from the bottom of the plate. Filters used for Fluo-4: excitation filter—485 nm, emission filter—538 nm. The whole measurement process was performed at 37° C. and was controlled by custom software Inhibitory potency of the test compounds was assessed by measuring the reduction in the agonist-evoked [Ca^2+]i-elevation in the presence of different concentrations of the compounds. The agonists were LysDABK for CHO-B1, and bradykinin for CHO-B2 cells. Agonists were applied at an EC80 concentration, the EC80-values were derived from daily determined dose-response curves. Fluorescence data were expressed as ΔF/F (fluorescence change normalized to baseline). All treatments on a single plate were measured in multiple wells. Data from all wells with the same treatment were averaged and the average values were used for analysis. Inhibitory potency of a compound at a single concentration point was expressed as percent inhibition of the control agonist response. Sigmoidal concentration-inhibition curves were fitted to the data (derived from at least three independent experiments) and IC50-values were determined as the concentration that produces half of the maximal inhibition caused by the compound.

[2] = target: T2, human recombinant bradykinin B1 receptor (Homo sapiens, UniProt P46663); assay: Human recombinant bradykinin B1 receptor binding; conditions: CHO cell membranes, [3H]-[Des-Arg10] Kallidin radioligand; read-out: B1 binding
T2 construct: host or cells: CHO cells
T2 sequence (P46663 1-353): T1 sequence (P46663 1-353)
Experimental: 1. Human Recombinant Bradykinin B1 Receptor Binding
Binding assays were carried out on human recombinant bradykinin) receptors (expressed in CHO cells) according to the Euroscreen Technical Data Sheet (Cat.No.:ES-091). 20 μg protein/tube was incubated with [3,4-prolyl-3,4-^3H(N)]-[Des-Arg^10] Kallidin as radioligand. Non specific binding was determined in the presence of 10 μM Lys-des-Arg^9-Bradykinin. The final incubation volume was 250 μl. Samples were incubated for 15 min. at 25° C. then were rapidly vacuum filtered through GF/B filters presoaked for at least 1 h in 0.5% PEI. Radioactivity was determined by liquid scintillation spectroscopy.

Structure (SMILES) | IC50 [1] | Ki [2]
O=C(NC(Cc1ccccc1)C(=O)NCC1CCNCC1)c1ccc(S(=O)(=O)Nc2ccccc2Oc2ccc(Cl)cc2Cl)cc1 (stereo not shown) [Example 6, 4-[2-(2,4-Dichloro-phenoxy)-phenylsulfamoyl]-N-{2-phenyl-1-[(piperidin-4-ylmethyl)-carbamoyl]-ethyl}-benzamide hydrochloride] | < 20 nM | < 20 nM
O=C(CNC(=O)c1ccc(S(=O)(=O)Nc2ccccc2Oc2ccccc2)cc1)Nc1ccc(N2CCC(N3CCCCC3)CC2)cc1 [Example 49, N-[(4-[1,4′]Bipiperidinyl-1′-yl-phenylcarbamoyl)-methyl]-4-(2-phenoxy-phenylsulfamoyl)-benzamide] | < 20 nM | < 20 nM
CC1CCCCN1CCCNC(=O)CNC(=O)c1ccc(S(=O)(=O)Nc2ccccc2Oc2ccc(Cl)cc2Cl)cc1 (stereo not shown) [Example 28, 4-[2-(2,4-Dichloro-phenoxy)-phenylsulfamoyl]-N-{[3-(2-methyl-piperidin-1-yl)-propylcarbamoyl]-methyl}-benzamide] | < 20 nM | < 20 nM
O=C(CNC(=O)c1ccc(S(=O)(=O)Nc2ccccc2Oc2ccc(Br)cc2)cc1)NCC1CCNCC1 [Example 3, 4-[2-(4-Bromo-phenoxy)-phenylsulfamoyl]-N-{[(piperidin-4-ylmethyl)-carbamoyl]-methyl}-benzamide trifluoroacetate] | < 20 nM | < 20 nM
O=C(CNC(=O)c1ccc(S(=O)(=O)Nc2ccccc2Oc2ccc(Cl)cc2Cl)cc1)NC1CCC(N2CCCCC2)CC1 (stereo not shown) [Example 62, 4-[2-(2,4-Dichloro-phenoxy)-phenylsulfamoyl]-N-[(4-piperidin-1-yl-cyclohexyl-carbamoyl)-methyl]-benzamide] | < 20 nM | < 20 nM
O=C(CNC(=O)c1ccc(S(=O)(=O)Nc2ccccc2Oc2ccc(Cl)cc2Cl)cc1)NCCN1CCCC1 [Example 31, 4-[2-(2,4-Dichloro-phenoxy)-phenylsulfamoyl]-N-[(2-pyrrolidin-1-yl-ethylcarbamoyl)-methyl]-benzamide] | < 20 nM | < 20 nM
O=C(CNC(=O)c1ccc(S(=O)(=O)Nc2ccccc2Oc2ccc(Cl)cc2Cl)cc1)NCCCn1ccnc1 [Example 29, 4-[2-(2,4-Dichloro-phenoxy)-phenylsulfamoyl]-N-[(3-imidazol-1-yl-propylcarbamoyl)-methyl]-benzamide] | < 20 nM | < 20 nM
O=C(CNC(=O)c1ccc(S(=O)(=O)Nc2ccccc2Oc2ccc(Cl)cc2Cl)cc1)NCCN1CCCCC1 [Example 23, 4-[2-(2,4-Dichloro-phenoxy)-phenylsulfamoyl]-N-[(2-piperidin-1-yl-ethylcarbamoyl)-methyl]-benzamide] | < 20 nM | < 20 nM
O=C(CNC(=O)c1ccc(S(=O)(=O)Nc2ccccc2Oc2ccc(Cl)cc2Cl)cc1)NCCCCN1CCCCC1 [Example 63, 4-[2-(2,4-Dichloro-phenoxy)-phenylsulfamoyl]-N-[(4-piperidin-1-yl-butylcarbamoyl)-methyl]-benzamide] | < 20 nM | < 20 nM
CN(C)CCCNC(=O)CNC(=O)c1ccc(S(=O)(=O)Nc2ccccc2Oc2ccc(Cl)cc2Cl)cc1 [Example 25, 4-[2-(2,4-Dichloro-phenoxy)-phenylsulfamoyl]-N-[(3-dimethylamino-propylcarbamoyl)-methyl]-benzamide] | < 20 nM | < 20 nM
C[C@H](NC(=O)c1ccc(S(=O)(=O)Nc2ccccc2Oc2ccc(Cl)cc2Cl)cc1)C(=O)NCC1CCNCC1 [Example 8, 4-[2-(2,4-Dichloro-phenoxy)-phenylsulfamoyl]-N—{(S)-1-[(piperidin-4-ylmethyl)-carbamoyl]-ethyl}-benzamide hydrochloride] | < 20 nM | < 20 nM
N=C(N)NCc1ccc(CNC(=O)CNC(=O)c2ccc(S(=O)(=O)Nc3ccccc3Oc3ccc(Cl)cc3Cl)cc2)cc1 [Example 39, 4-[2-(2,4-Dichloro-phenoxy)-phenylsulfamoyl]-N-[(4-guanidinomethyl-benzylcarbamoyl)-methyl]-benzamide hydrochloride] | < 20 nM | < 20 nM
O=C(CNC(=O)c1ccc(S(=O)(=O)Nc2ccccc2Oc2ccccc2)cc1)NCCC1CCNCC1 [Example 10, 4-(2-Phenoxy-phenylsulfamoyl)-N-[(2-piperidin-4-yl-ethylcarbamoyl)-methyl]-benzamide hydrochloride] | < 20 nM | < 20 nM
O=C(CNC(=O)c1ccc(S(=O)(=O)Nc2ccccc2Oc2ccc(Cl)cc2Cl)cc1)NCC1CCNCC1 [Example 1, 4-[2-(2,4-Dichloro-phenoxy)-phenylsulfamoyl]-N-{[(Piperidin-4-ylmethyl)-carbamoyl]-methyl}-benzamide hydrochloride] | < 20 nM | < 20 nM
O=C(CNC(=O)c1ccc(S(=O)(=O)Nc2cc(F)ccc2Oc2ccccc2)cc1)NCC1CCNCC1 [Example 7, 4-(5-Fluoro-2-phenoxy-phenylsulfamoyl)-N-{[(piperidin-4-ylmethyl)-carbamoyl]-methyl}-benzamide hydrochloride] | < 20 nM | < 20 nM
O=C(CNC(=O)c1ccc(S(=O)(=O)Nc2ccccc2Oc2ccc(Cl)cc2Cl)cc1)NCCN1CCOCC1 [Example 30, 4-[2-(2,4-Dichloro-phenoxy)-phenylsulfamoyl]-N-[(2-morpholin-4-yl-ethylcarbamoyl)-methyl]-benzamide] | < 20 nM | < 20 nM
O=C(CNC(=O)c1ccc(S(=O)(=O)Nc2cc(F)ccc2Oc2ccc(F)cc2)cc1)NCCC1CCNCC1 [Example 13, 4-[5-Fluoro-2-(4-fluoro-phenoxy)-phenylsulfamoyl]-N-[(2-piperidin-4-yl-ethylcarbamoyl)-methyl]-benzamide hydrochloride] | < 20 nM | < 20 nM
O=C(CNC(=O)c1ccc(S(=O)(=O)Nc2ccccc2Oc2ccc(Cl)cc2Cl)cc1)NC1CCNCC1 [Example 60, 4-[2-(2,4-Dichloro-phenoxy)-phenylsulfamoyl]-N-(piperidin-4-ylcarbamoylmethyl)-benzamide hydrochloride] | < 20 nM | < 20 nM
O=C(CNC(=O)c1ccc(S(=O)(=O)Nc2ccccc2Oc2ccccc2)cc1)N[C@H]1CC[C@H](CCN2CCCC2)CC1 [Example 50, trans-4-(2-Phenoxy-phenylsulfamoyl)-N-{[4-(2-pyrrolidin-1-yl-ethyl)-cyclohexyl-carbamoyl]-methyl}-benzamide] | < 20 nM | < 20 nM
O=C(CNC(=O)c1ccc(S(=O)(=O)Nc2ccccc2Oc2ccc(Cl)cc2Cl)cc1)NCCCC1CCNCC1 [Example 61, 4-[2-(2,4-Dichloro-phenoxy)-phenylsulfamoyl]-N-[(3-piperidin-4-yl-propylcarbamoyl)-methyl]-benzamide hydrochloride] | < 20 nM | < 20 nM
